SMILES strings stand for the structures.

What all share (format): cell-based
Common to all, as to conditions: fluorescent calcium assay

One assay concerns the target TRPML1 (Homo sapiens, UniProt Q9GZU1). Put plainly: Fluorescent TRPML1 assay (Fluo4-AM calcium fluorescence in doxycycline-induced HEK-293 Trex cells). Summed up:
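EC50 values come from non-linear regression of percent activity, normalized to on-plate positive and negative controls, with fluorescence read at 480 nm excitation and 540 nm emission. Fluo4-AM-loaded (1 µM) doxycycline-induced HEK-293 Trex cells expressing mutated human TRPML1 were exposed in 10 mM calcium Ringer's to 6 nM–20 µM compound, in triplicate.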

The target in a further assay is T1, TRPML2 (Homo sapiens, UniProt Q8IZK6).
T1 construct: expressed in transfected cells
T1 sequence (Q8IZK6 1-566): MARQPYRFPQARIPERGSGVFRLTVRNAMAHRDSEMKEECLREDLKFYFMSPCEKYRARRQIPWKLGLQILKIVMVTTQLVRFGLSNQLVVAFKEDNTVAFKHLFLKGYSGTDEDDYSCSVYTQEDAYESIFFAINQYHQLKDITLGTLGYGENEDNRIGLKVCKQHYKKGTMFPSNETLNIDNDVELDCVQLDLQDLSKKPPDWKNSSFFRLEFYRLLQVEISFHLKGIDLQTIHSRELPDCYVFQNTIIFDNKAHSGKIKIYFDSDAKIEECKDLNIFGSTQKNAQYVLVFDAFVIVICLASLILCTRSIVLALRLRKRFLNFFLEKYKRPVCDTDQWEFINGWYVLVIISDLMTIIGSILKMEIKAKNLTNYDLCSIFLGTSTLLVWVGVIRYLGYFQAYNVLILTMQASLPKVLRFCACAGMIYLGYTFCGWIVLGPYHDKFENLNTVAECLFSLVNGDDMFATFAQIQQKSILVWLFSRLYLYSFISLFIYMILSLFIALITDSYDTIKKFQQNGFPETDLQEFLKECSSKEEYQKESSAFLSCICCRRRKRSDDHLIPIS
The assay can be described thus: Fluorescent TRPML2 assay (performed as for TRPML1, substituting the TRPML2 subtype). The procedure, abridged: (§1)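 Agonist activity is scored as percent of plate controls from Fluo4 fluorescence after dye-loaded, doxycycline-induced HEK-293 Trex cells meet compound in high-calcium (10 mM) Ringer's. Compounds run in half-log dilutions from 20 micromolar final, in triplicate.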

The target in another assay is T2, TRPML3 (Homo sapiens, UniProt Q8TDD5).
T2 construct: expressed in transfected cells
T2 sequence (Q8TDD5 1-553): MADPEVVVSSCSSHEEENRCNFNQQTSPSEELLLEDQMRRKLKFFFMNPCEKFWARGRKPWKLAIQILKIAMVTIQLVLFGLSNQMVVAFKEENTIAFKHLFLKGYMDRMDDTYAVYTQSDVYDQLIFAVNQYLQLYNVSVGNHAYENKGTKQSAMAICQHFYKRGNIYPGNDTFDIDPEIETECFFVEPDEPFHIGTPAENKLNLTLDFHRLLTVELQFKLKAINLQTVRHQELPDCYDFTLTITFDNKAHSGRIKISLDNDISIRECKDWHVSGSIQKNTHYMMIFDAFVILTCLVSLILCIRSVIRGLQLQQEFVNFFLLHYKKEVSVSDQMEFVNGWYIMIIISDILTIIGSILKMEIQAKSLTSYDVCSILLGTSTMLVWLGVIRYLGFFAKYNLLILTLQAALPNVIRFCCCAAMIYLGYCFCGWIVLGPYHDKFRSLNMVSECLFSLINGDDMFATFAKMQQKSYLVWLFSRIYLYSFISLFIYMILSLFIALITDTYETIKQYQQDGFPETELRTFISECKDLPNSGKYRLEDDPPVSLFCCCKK
Put plainly: Fluorescent TRPML3 assay (performed as for TRPML1, substituting the TRPML3 subtype). The procedure, abridged: as §1

Chain of TRPML1 (Q9GZU1 whole entry L15A/L16A/L577A/L578A, form open): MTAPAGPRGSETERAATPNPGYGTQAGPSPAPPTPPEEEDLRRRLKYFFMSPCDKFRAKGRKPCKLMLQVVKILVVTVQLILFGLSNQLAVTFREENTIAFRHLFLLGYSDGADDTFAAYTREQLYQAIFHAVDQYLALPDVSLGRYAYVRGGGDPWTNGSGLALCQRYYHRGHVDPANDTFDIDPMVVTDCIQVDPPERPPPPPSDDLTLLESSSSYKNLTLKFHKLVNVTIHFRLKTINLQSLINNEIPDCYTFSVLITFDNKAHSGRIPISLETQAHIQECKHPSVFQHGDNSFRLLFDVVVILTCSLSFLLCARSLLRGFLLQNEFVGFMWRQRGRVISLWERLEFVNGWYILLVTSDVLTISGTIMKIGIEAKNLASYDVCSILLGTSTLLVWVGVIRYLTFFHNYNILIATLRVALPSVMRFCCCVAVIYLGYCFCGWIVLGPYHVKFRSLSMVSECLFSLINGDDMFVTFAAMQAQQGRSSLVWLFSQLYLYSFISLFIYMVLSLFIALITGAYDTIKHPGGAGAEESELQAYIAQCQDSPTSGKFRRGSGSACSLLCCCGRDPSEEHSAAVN

Usually EC50 stands for the concentration giving half of the maximal effect. Regarding `C[C@H]1CN(C(=O)OC(C)(C)C)CCN1c1ncnc2c1c(-c1ccccn1)cn2-c1cc(C#N)ccn1` [Compound 352, tert-butyl (S)-4-(7-(4-cyanopyridin-2-yl)-5-(pyridin-2-yl)-7H-pyrrolo[2,3-d]pyrimidin-4-yl)-3-methylpiperazine-1-carboxylate], the EC50 on TRPML1, at TRPML2 and at TRPML3 was < 100 nM in each case.

As to `C[C@H]1CN(C(=O)OC(C)(C)C)CCN1c1ncnc2c1c(-c1cccnc1)cn2-c1cc(C#N)ccn1` [Compound 353, tert-butyl (S)-4-(7-(4-cyanopyridin-2-yl)-5-(pyridin-3-yl)-7H-pyrrolo[2,3-d]pyrimidin-4-yl)-3-methylpiperazine-1-carboxylate], the EC50 on TRPML1, at TRPML2 and at TRPML3 was < 100 nM in each case.

On to `C[C@H]1CN(C(=O)OC(C)(C)C)CCN1c1ncnc2c1c(-c1ccncc1)cn2-c1cc(C#N)ccn1` [Compound 354, tert-butyl (S)-4-(7-(4-cyanopyridin-2-yl)-5-(pyridin-4-yl)-7H-pyrrolo[2,3-d]pyrimidin-4-yl)-3-methylpiperazine-1-carboxylate], for which the EC50 at TRPML1, on TRPML2 and on TRPML3 was < 100 nM throughout.

For the compound `C[C@H]1CN(C(=O)OC(C)(C)C)CCN1c1ncnc2c1c(-c1ccncc1F)cn2-c1cc(C#N)ccn1` [Compound 355, tert-butyl (S)-4-(7-(4-cyanopyridin-2-yl)-5-(3-fluoropyridin-4-yl)-7H-pyrrolo[2,3-d]pyrimidin-4-yl)-3-methylpiperazine-1-carboxylate], the EC50 at TRPML1, on TRPML2 and at TRPML3 was < 100 nM each time.

With `C[C@@H]1CN(c2ncnc3c2c(N2CCCC2)cn3-c2cc(F)c(F)c(F)c2)CCN1C(=O)OC(C)(C)C` [Compound 362, tert-butyl (R)-2-methyl-4-(5-(pyrrolidin-1-yl)-7-(3,4,5-trifluorophenyl)-7H-pyrrolo[2,3-d]pyrimidin-4-yl)piperazine-1-carboxylate], the EC50 was < 100 nM at TRPML1, 100 to 500 nM on TRPML2 and < 100 nM on TRPML3.

Consider `C[C@@H]1CN(c2cn(-c3cccc(C#N)c3)c3ncnc(N4CCN(C(=O)OC(C)(C)C)C[C@@H]4C)c23)CCO1` [Compound 363, tert-butyl (S)-4-(7-(3-cyanophenyl)-5-((R)-2-methylmorpholino)-7H-pyrrolo[2,3-d]pyrimidin-4-yl)-3-methylpiperazine-1-carboxylate], for which the EC50 on TRPML1 is 100 to 500 nM; at TRPML2, 500 to 2000 nM; on TRPML3 it was < 100 nM.

Regarding `C[C@H]1CN(C(=O)OC(C)(C)C)CCN1c1ncnc2c1c(C1CC1)cn2C12CCC(CC1)CC2` [Compound 364, tert-butyl (S)-4-(7-(bicyclo[2.2.2]octan-1-yl)-5-cyclopropyl-7H-pyrrolo[2,3-d]pyrimidin-4-yl)-3-methylpiperazine-1-carboxylate], the EC50 at TRPML1 is < 100 nM; on TRPML2, 100 to 500 nM; at TRPML3, < 100 nM.

Turning to `C[C@H]1CN(C(=O)OC(C)(C)C)CCN1c1ncnc2c1c(C1CC1(F)F)cn2-c1cc(C#N)ccn1` (stereo partly drawn) [Compound 365, tert-butyl (3S)-4-(7-(4-cyanopyridin-2-yl)-5-(2,2-difluorocyclopropyl)-7H-pyrrolo[2,3-d]pyrimidin-4-yl)-3-methylpiperazine-1-carboxylate], the EC50 is < 100 nM at TRPML1, 100 to 500 nM at TRPML2 and < 100 nM on TRPML3.

On to `CCN(CC)c1cn(-c2cccc(Cl)c2)c2ncnc(N3CCN(C(=O)OC(C)(C)C)C[C@@H]3C)c12` [Compound 366, tert-butyl (S)-4-(7-(3-chlorophenyl)-5-(diethylamino)-7H-pyrrolo[2,3-d]pyrimidin-4-yl)-3-methylpiperazine-1-carboxylate], for which the figures for the half-maximal effective concentration (EC50) on TRPML1, at TRPML2 and at TRPML3 were < 100 nM, 100 to 500 nM and < 100 nM, respectively.

As for `C[C@@H]1CN(c2ncnc3c2c(-c2ccccn2)cn3-c2cc(C#N)ccn2)CCN1C(=O)OC(C)(C)C` [Compound 367, tert-butyl (R)-4-(7-(4-cyanopyridin-2-yl)-5-(pyridin-2-yl)-7H-pyrrolo[2,3-d]pyrimidin-4-yl)-2-methylpiperazine-1-carboxylate], the results for the EC50 at TRPML1, at TRPML2 and at TRPML3 were < 100 nM, 100 to 500 nM and < 100 nM, respectively.

On to `C[C@H]1CN(C(=O)OCC(F)(F)F)CCN1c1ncnc2c1c(C1CC1)cn2-c1cc(C#N)ccn1` [Compound 368, 2,2,2-trifluoroethyl (S)-4-(7-(4-cyanopyridin-2-yl)-5-cyclopropyl-7H-pyrrolo[2,3-d]pyrimidin-4-yl)-3-methylpiperazine-1-carboxylate], for which the EC50 is < 100 nM at TRPML1, 500 to 2000 nM on TRPML2 and < 100 nM at TRPML3.

As for `C[C@@H]1COCCN1c1cn(-c2cccc(C#N)c2)c2ncnc(N3CCN(C(=O)OC(C)(C)C)C[C@@H]3C)c12` [Compound 369, tert-butyl (S)-4-(7-(3-cyanophenyl)-5-((R)-3-methylmorpholino)-7H-pyrrolo[2,3-d]pyrimidin-4-yl)-3-methylpiperazine-1-carboxylate], the figures for the EC50 at TRPML1, on TRPML2 and at TRPML3 were 100 to 500 nM, 500 to 2000 nM and 100 to 500 nM, respectively.

As to `C[C@H]1CN(C(=O)OC(C)(C)C)CCN1c1ncnc2c1c(N1CCCC1)cn2-c1cc(C#N)ccn1` [Compound 370, tert-butyl (S)-4-(7-(4-cyanopyridin-2-yl)-5-(pyrrolidin-1-yl)-7H-pyrrolo[2,3-d]pyrimidin-4-yl)-3-methylpiperazine-1-carboxylate], the values for the EC50 at TRPML1, at TRPML2 and on TRPML3 were < 100 nM, 100 to 500 nM and < 100 nM, respectively.

`C[C@H]1CN(C(=O)OCC(F)(F)F)CCN1c1ncnc2c1c(-c1ccccc1)cn2-c1cc(C#N)ccn1` [Compound 371, 2,2,2-trifluoroethyl (S)-4-(7-(4-cyanopyridin-2-yl)-5-phenyl-7H-pyrrolo[2,3-d]pyrimidin-4-yl)-3-methylpiperazine-1-carboxylate]: the results for the EC50 at TRPML1, on TRPML2 and on TRPML3 were < 100 nM, 500 to 2000 nM and < 100 nM, respectively.

For the compound `Cc1c(F)cc(-n2cc(N3CCCC3)c3c(N4CCN(C(=O)OC(C)(C)C)C[C@@H]4C)ncnc32)cc1F` [Compound 374, tert-butyl (S)-4-(7-(3,5-difluoro-4-methylphenyl)-5-(pyrrolidin-1-yl)-7H-pyrrolo[2,3-d]pyrimidin-4-yl)-3-methylpiperazine-1-carboxylate], the EC50 was 100 to 500 nM at TRPML1, 500 to 2000 nM at TRPML2 and < 100 nM at TRPML3.

On to `CCN(CC)c1cn(-c2cccc(Cl)c2)c2ncnc(N3CCN(C(=O)OC(C)(C)C)[C@H](C)C3)c12` [Compound 375, tert-butyl (R)-4-(7-(3-chlorophenyl)-5-(diethylamino)-7H-pyrrolo[2,3-d]pyrimidin-4-yl)-2-methylpiperazine-1-carboxylate], for which the EC50 was < 100 nM at TRPML1, 100 to 500 nM on TRPML2 and < 100 nM on TRPML3.

For `C[C@H]1CN(C(=O)OC(C)(C)C)CCN1c1ncnc2c1c(C1CC1(F)F)cn2-c1cccc(C#N)c1` (stereo partly drawn) [Compound 376], the values for the EC50 on TRPML1, at TRPML2 and at TRPML3 were < 100 nM, 100 to 500 nM and < 100 nM, respectively.

Take `C[C@@H]1CN(c2ncnc3c2c(C2CC2)cn3-c2cc(C#N)ccn2)CCN1C(=O)OCC(F)(F)F` [Compound 377, 2,2,2-trifluoroethyl (R)-4-(7-(4-cyanopyridin-2-yl)-5-cyclopropyl-7H-pyrrolo[2,3-d]pyrimidin-4-yl)-2-methylpiperazine-1-carboxylate]: the results for the EC50 on TRPML1, on TRPML2 and at TRPML3 were < 100 nM, 100 to 500 nM and < 100 nM, respectively.

For the origin of these results see patent US20250136606A1, “MODULATORS OF TRPML, THEIR COMPOSITIONS AND METHODS OF USE” (Caraway Therapeutics, Inc., priority 2021, published 2025).
